# Assay: Chemical stability
# Assay type: physicochemical
# Settings: compared to 2
compound,measurement,value
Cc1c(C)n(-c2ccc(CC(=O)O)cc2)c2ccc(F)cc12 [compound 3],chemical stability,improved chemical stability

# Source: PMC7618597, “Dual Nurr1/RXR agonism of valerenic acid and synthetic mimetics enables dimer-selective Nurr1 modulation” (ACS medicinal chemistry letters, 2025)
